Series [1] has as its system chronic arthritis of adjuvant. Kind of series: Anti-inflammatory activity, chronic arthritis of adjuvant (preventative treatment). It counts as in vivo. Particulars: male rats, oral, day 0 to day before kill on day 17; for ED50: Rattus norvegicus, 408 h, read-out: DA50 (the source's name). As to the method:
A. Anti-inflammatory activity chronic arthritis of adjuvant (preventative treatment)
(§1) The injection of adjuvant of "Freund" type into a hind paw causes in rats the rapid appearance of a primary inflammatory lesion in this paw and then after a latent period of 13 to 15 days, causes a secondary arthritis affecting in particular the other hind paw. The test was carried out on male rats aged from 42 to 50 days which received by intraplantar injection 0.1 ml of adjuvant of "Freund"type (suspension in vaseline oil of 6 mg per ml. of killed mycobacterium butyricum). The animals received the product studied orally from day 0 (day of the injection of the adjuvant) until the day before they were killed which occured on day 17. The arthritic control animals and normal control animals received only the vehicle. The assessment criteria of the activity of the substances studied were the increase in the volume of hind paws injected (primary and secondary inflammation) and not injected (secondary inflammation) in comparison with the average volume of paws corresponding to the normal controls. The DA50 was determined, that is to say, the dose which reduced the increase in volume of the hind paws of the treated animals in comparison to those of the control animals by 50% and the results are reported in the following Table.
C. Anti-inflammatory activity chronic arthritis of adjuvant (preventative treatment)
as §1, with “"Freund" type” for “"Freund"type”, “say” for “say,”, “50%.” for “50% and the results are reported in the following Table.”

Series [2] concerns stomachs. Kind of series: Gastric ulceration effect. It counts as in vivo. Particulars: female rats, oral, seven hours; graphically determined; maximum ulceration index is 300. The protocol: B. Gastric ulceration effect
The test was done on female rats weighing 120 to 150 g on a water diet for 24 hours at the time of the treatment divided into random groupd. The products were administered orally and seven hours later, the animals were killed and their stomachs opened along the great curvature, washed in an isotonic solution of sodium chloride and spread apart by wiping with a cotton pad soaked in the same solution. The degree of ulcerous lesions, in number and in size, was estimated on a scale from 0 to 3 by two observers unware of the treatments. The notation 1 indicated the presence of an obvious ulcer or of several punctiform ulcers.
To take in account also the percentage of rats having ulcers (degree of ulceration greater than 0.5, notation attributed to a hyperemia or to Petechiae often encountered in a control which had fasted) an ulceration index was calculated for each group according to the formula [formula]
The dose corresponding to an ulceration index of 100 or DU 100 was graphically determined (the maximum ulceration index is 300).

Where [3] appears, read: dose reducing increase in volume of hind paws by 50% (table, section A).

Where two headings read alike, the source gives them in different places.

As to `CCC(O)c1nc2c(C(F)(F)F)cccc2c(O)c1C(=O)Nc1nccs1` (single isomer, unassigned; isomer b) [Step A of Example 27 (B-isomer), 4-hydroxy-2-(1-hydroxypropyl)-N-(2-thiazolyl)-8-trifluoromethyl-3-quinoline carboxamide isomer B], the ED50 in series [1] (dose reducing increase in volume of hind paws by 50% (text, section C)) stood at 0.5 mg/kg.

As to `COCC(O)c1nc2c(C(F)(F)F)cccc2c(O)c1C(=O)Nc1nccs1` (stereo not shown) [Example 1, 4-hydroxy-2-(1-hydroxy-2-methoxy-ethyl)-N-(2-thiazolyl)-8-(trifluoromethyl)-3-quinoline carboxamide], the ED50 in series [1] (setting [3]) came to 2 mg/kg.

`O=C(Nc1nccs1)c1c(C(O)CO)nc2c(C(F)(F)F)cccc2c1O` (stereo not shown) [Example 2, 2-(1,2-dihydroxyethyl)-4-hydroxy-N-(2-thiazolyl)-8-trifluoromethyl-3-quinoline carboxamide]: the ED50 in series [1] (setting [3]) is 0.7 mg/kg.

On to `CC(O)C(O)c1nc2c(C(F)(F)F)cccc2c(O)c1C(=O)Nc1nccs1` (stereo not shown) [Example 3, 2-(1,2-dihydroxypropyl)-4-hydroxy-N-(2-thiazolyl)-8-trifluoromethyl-3-quinoline carboxamide], for which, in series [1] (setting [3]), the ED50 was found to be 3 mg/kg.

Take `CCC(=O)OCC(OC(=O)CC)c1nc2c(C(F)(F)F)cccc2c(O)c1C(=O)Nc1nccs1` (stereo not shown) [Example 4, 2-[1,2-bis-(1-oxopropoxy)ethyl]-4-hydroxy-N-(2-thiazolyl)-8-trifluoromethyl-3-quinolinecarboxamide]: the ED50 in series [1] (setting [3]) came out at 1 mg/kg.

As to `CCC(=O)OC(COC)c1nc2c(C(F)(F)F)cccc2c(O)c1C(=O)Nc1nccs1` (stereo not shown) [Example 5, 2-[2-methoxy-1-(1-oxopropoxy)-ethyl]-4-hydroxy-N-(2-thiazolyl)-8-trifluoromethyl-3-quinoline carboxamide], in series [1] (setting [3]), the ED50 turned out to be 5 mg/kg.

Regarding `CCC(=O)OC(CC)c1nc2c(C(F)(F)F)cccc2c(O)c1C(=O)Nc1nccs1` (stereo not shown) [Example 12, 4-hydroxy-2-[1-(1-oxopropoxy)-propyl]-N-(2-thiazolyl)-8-(trifluoromethyl)-3-quinoline carboxamide], the ED50 in series [1] (setting [3]) came out at 0.8 mg/kg. The “DU 100 (dose corresponding to an ulceration index of 100)” value in series [2] is “greater than 300 mg/kg”.

As for `CCC(OC(=O)CN)c1nc2c(C(F)(F)F)cccc2c(O)c1C(=O)Nc1nccs1` (stereo not shown) [Example 16, 1-[4-hydroxy-3-[(2-thiazolylamino)-carbonyl]-8-(trifluoromethyl)-2quinolinyl]-propyl amino acetate dichlorohydride], the ED50 in series [1] (setting [3]) worked out at 1 mg/kg.

Take `CCCC(=O)OC(CC)c1nc2c(C(F)(F)F)cccc2c(O)c1C(=O)Nc1nccs1` (stereo not shown) [Example 17, 1-[4-hydroxy-3-[(2-thiazolylamino)-carbonyl]-8-trifluoromethyl)-2quinolinyl]-propyl butanoate]: the ED50 in series [1] (setting [3]) turned out to be 1.3 mg/kg. For the same compound, in series [2], the “DU 100 (dose corresponding to an ulceration index of 100)” value is given as “greater than 300 mg/kg”.

With `CCC(OC(=O)c1cc2ccccc2[nH]1)c1nc2c(C(F)(F)F)cccc2c(O)c1C(=O)Nc1nccs1` (stereo not shown) [Example 28, 1-[4-hydroxy-3-{[(2-aminothiazolyl)-carbonyl]-8-trifluoromethyl2-quinolinyl]-propyl]1H-indole-2-carboxylate], the ED50 in series [1] (setting [3]) came out at 2 mg/kg.

For `CCCc1ncc(C(=O)OC(CC)c2nc3c(C(F)(F)F)cccc3c(O)c2C(=O)Nc2nccs2)s1` (stereo not shown) [Example 29], in series [1] (dose reducing increase in volume of hind paws by 50% (table, section A), 24480 min), the DA50 is listed as 2 mg/kg.

The values above are taken from patent US4988708A, “Analgesic and anti-inflammatory 4-OH quinoline carboxylic acid derivatives” (Roussel Uclaf, priority 1984, dated 1991).
